Measured values from ChEMBL document CHEMBL1145713, “Cyclic peptides from higher plants. 34. Segetalins G and H, structures and estrogen-like activity of cyclic pentapeptides from Vaccaria segetalis” (1997).
Peptide text beside a SMILES is read from it.

System: Rattus norvegicus
Assay: Estrogen-like activity in ovariectomized SD rat assessed as increase in uterus weight at 2.5 mg/kg, sc administered daily for 14 days
Type: functional
Conditions: route subcutaneous

SMILES | Activity [mg]
CC(C)[C@@H]1NC(=O)[C@@H]2CCCN2C(=O)[C@H](C(C)C)NC(=O)CNC(=O)[C@H](C)NC(=O)[C@H](Cc2c[nH]c3ccccc23)NC1=O [SEGETALIN A] (cyclo(AGVPVW)) | 54.4
CC(C)[C@@H]1NC(=O)CNC(=O)[C@H](C)NC(=O)[C@H](Cc2c[nH]c3ccccc23)NC(=O)[C@H](C)NC1=O [SEGETALIN B] (cyclo(AGVAW)) | 56.3
CC(C)[C@@H]1NC(=O)CNC(=O)[C@H](C)NC(=O)[C@H](Cc2ccc(O)cc2)NC(=O)[C@H](CCCCN)NC1=O [SEGETALIN G] (cyclo(AGVKY)) | 51.2
N=C(N)NCCC[C@@H]1NC(=O)[C@H](Cc2ccc(O)cc2)NC(=O)CNC(=O)[C@H](CO)NC(=O)[C@H](Cc2ccccc2)NC1=O [SEGETALIN H] (cyclo(FSGYR)) | 54.8
